For one test, the target named is T1, STAT6 (Homo sapiens, UniProt P42226).
T1 construct: Recombinant STAT6 protein (STAT6(W123-T658))
T1 sequence (P42226 123-658): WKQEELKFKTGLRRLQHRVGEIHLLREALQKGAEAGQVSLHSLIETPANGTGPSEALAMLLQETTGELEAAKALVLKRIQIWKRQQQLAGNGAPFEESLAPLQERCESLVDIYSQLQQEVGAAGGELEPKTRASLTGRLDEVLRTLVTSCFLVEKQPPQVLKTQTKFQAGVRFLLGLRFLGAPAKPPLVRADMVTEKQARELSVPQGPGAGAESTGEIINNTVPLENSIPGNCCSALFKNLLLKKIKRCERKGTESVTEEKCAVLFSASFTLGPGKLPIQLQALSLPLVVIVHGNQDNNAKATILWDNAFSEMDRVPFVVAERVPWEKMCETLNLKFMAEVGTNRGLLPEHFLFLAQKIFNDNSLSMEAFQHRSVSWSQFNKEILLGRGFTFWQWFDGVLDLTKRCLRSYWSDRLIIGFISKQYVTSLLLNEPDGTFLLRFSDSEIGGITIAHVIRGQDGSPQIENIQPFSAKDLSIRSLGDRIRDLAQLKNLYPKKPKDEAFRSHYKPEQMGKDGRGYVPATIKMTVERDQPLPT
Description: STAT6 Fluorescence Polarization (FP) Assay. The format is binding. The method, boiled down: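 STAT6(W123-T658) at 250 nM with 2 nM 5-FAM-ApYKPFQDLI-NH2 probe in HEPES pH 7.4, 50 mM NaCl, EDTA, Tween 20, DTT, 1% DMSO. FP read after 45 min at room temperature; IC50 from nonlinear fit of mP versus log concentration.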
For orientation: In fluorescence polarisation assays a small probe gives low polarisation when free and higher when bound to something large.

A further test addresses T2, STAT3 (Homo sapiens, UniProt P40763).
T2 construct: Recombinant STAT3 protein (STAT3(G127-I722))
Description: STAT3 Fluorescence Polarization (FP) Assay. The format is binding. The gist of the method: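 Recombinant STAT3 (G127–I722, 25 nM) was mixed with 2 nM 5-FAM-GpYLPQTV-NH2 probe in HEPES pH 7.4 buffer with 1% DMSO and serially diluted compound. Fluorescence polarization was read after 45 min at room temperature. IC50 came from nonlinear regression of mP versus log concentration and was binned A (≤100 nM), B (>100–1000 nM), C (>1–10 μM) or D (>10 μM).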

For another test, the target named is T3, pSTAT6 (Homo sapiens, UniProt P42226).
T3 sequence (P42226 1-847): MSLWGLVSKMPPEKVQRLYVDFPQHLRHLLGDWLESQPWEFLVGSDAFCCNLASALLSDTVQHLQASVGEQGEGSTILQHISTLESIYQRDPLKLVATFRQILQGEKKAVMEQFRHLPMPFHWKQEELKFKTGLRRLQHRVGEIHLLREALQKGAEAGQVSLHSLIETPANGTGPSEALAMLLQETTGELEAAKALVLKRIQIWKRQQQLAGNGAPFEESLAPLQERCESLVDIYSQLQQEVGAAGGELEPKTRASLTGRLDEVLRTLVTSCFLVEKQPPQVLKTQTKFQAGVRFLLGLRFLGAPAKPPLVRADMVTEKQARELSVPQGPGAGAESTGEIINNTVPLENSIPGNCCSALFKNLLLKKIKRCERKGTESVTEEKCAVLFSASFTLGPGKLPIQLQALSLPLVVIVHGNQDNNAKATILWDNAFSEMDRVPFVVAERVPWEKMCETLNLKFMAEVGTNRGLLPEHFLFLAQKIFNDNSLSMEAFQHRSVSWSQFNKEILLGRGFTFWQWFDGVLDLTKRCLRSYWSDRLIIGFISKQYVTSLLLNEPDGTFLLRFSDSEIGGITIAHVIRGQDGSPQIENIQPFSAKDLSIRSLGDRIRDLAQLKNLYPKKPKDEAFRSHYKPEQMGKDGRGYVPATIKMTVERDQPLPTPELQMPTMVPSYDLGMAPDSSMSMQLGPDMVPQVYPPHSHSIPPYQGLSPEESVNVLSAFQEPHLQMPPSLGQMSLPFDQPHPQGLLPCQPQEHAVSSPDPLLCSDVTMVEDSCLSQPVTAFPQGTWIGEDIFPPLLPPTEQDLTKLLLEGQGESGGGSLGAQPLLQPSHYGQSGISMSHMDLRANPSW
Description: MSD-pSTAT-PBMC Assay (pSTAT6, IL-4 stimulated). The settings on record: compound 3 hrs, then 1 ng/mL IL-4 10 min, pY641-STAT6, read-out: pSTAT6 IC50. The format is cell-based. An excerpt:
Cryopreserved Peripheral Blood Mononuclear Cells (PBMC) are from AllCells. Recombinant Human IL-4 and IL-6 are from Peprotech. Mouse monoclonal anti-STAT3 antibody, rabbit monoclonal anti-pY705-STAT3 antibody, rabbit monoclonal Anti-pY641-STAT6 antibody, and lysis buffer are from Cell Signaling Technology (CST). Mouse monoclonal anti-STAT6 antibody is from BioLegend. Assay plates, blocker, and anti-rabbit secondary antibody are from Meso Scale Discovery (MSD).
Cryopreserved PBMCs were thawed out and allowed to recover overnight in IMDM+10% heat-inactivated FBS prior to plating 50,000 (STAT3) or 25,000 (STAT6) cells per well in 96-well U-bottom tissue culture plates. Cells were treated with compound for 3 hrs, then stimulated with 10 ng/mL IL-6 (STAT3) or 1 ng/mL IL-4 (STAT6) for 10 min. Cells were then spun down and washed with ice-cold PBS prior to lysing the cell pellet with 1× lysis buffer (CST) with 1× HALT protease and phosphatase inhibitor cocktail (Thermo). Lysates were transferred to and incubated overnight at 4° C. with shaking in QuickPlex 96-well high bind assay plates (MSD) pre-coated overnight with 30 μL per well of […] mouse monoclonal anti-STAT3 antibody (STAT3) or 2 μg/mL mouse monoclonal anti-STAT6 antibody (STAT6) in 1× PBS, and pre-blocked for 1 hour with 3% Blocker-A (MSD). Captured protein in the assay plates were then washed and probed with 25 μL per well of […] rabbit monoclonal anti-pY705-STAT3 antibody (STAT3) or […] rabbit monoclonal Anti-pY641-STAT6 antibody (STAT6) in 1% Blocker-A for 1 hour at room temperature with shaking, then washed and probed with 25 ul per well of 1 ug/ml Sulfo-TAG Labeled Goat Anti-Rabbit Antibody (MSD) in 1% Blocker-A for 1 hour at room temperature with shaking. Assay plates were then washed and 150 μL of 1× Read Buffer-T (MSD) was added to each well prior to reading on an SQ120 MSD Plate Reader. Assay signal from each sample was subtracted by the signal from unstimulated control wells and normalized to DMSO control wells. IC50 values were calculated using Graph Pad Prism Dose-Response Nonlinear Regression with variable slope. For both pSTAT3 and pSTAT6 A=≤100 nM; B=>100-1000 nM; C=>1000-3000 nM; and D=>3 μM.

Molecules are shown by their SMILES. A value given as a limit tells only on which side of the number the result lay.

T2 sequence (P40763 127-722): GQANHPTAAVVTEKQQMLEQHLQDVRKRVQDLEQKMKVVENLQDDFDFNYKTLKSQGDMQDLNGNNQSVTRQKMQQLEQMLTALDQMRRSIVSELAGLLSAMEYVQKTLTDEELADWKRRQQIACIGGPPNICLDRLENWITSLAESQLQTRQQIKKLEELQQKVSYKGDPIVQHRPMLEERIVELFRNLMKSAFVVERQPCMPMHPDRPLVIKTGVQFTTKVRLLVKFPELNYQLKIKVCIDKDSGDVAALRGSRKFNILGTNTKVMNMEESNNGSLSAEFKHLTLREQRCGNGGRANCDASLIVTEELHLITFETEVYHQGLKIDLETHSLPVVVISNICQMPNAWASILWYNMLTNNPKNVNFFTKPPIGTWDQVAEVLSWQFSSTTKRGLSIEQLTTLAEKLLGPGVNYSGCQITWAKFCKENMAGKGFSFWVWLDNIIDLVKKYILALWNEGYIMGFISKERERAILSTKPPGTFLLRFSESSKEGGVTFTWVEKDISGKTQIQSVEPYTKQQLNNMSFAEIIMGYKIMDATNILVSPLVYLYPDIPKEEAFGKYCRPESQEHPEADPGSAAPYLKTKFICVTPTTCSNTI

Usually IC50 stands for the concentration needed to halve the response being measured. `N#CC1CN(C(=O)C2CCC3CCCCC(NC(=O)c4cc5cc(C(F)(F)P(=O)(O)O)ccc5s4)C(=O)N32)CC1c1cccc(N2CCN(c3ccc4c(c3)[nH]c(=O)n4C3CCC(=O)NC3=O)CC2)c1` [Compound 22, ((2-(((3S,6S,10aS)-3-((rel-3S,4R)-3-cyano-4-(3-(4-(1-(2,6-dioxopiperidin-3-yl)-2-oxo-2,3-dihydro-1H-benzo[d]imidazol-5-yl)piperazin-1-yl)phenyl)pyrrolidine-1-carbonyl)-5-oxodecahydropyrrolo[1,2-a]azocin-6-yl)carbamoyl)benzo[b]thiophen-5-yl)difluoromethyl)phosphonic acid]: the values for the IC50 on STAT6, against STAT3 and on pSTAT6 were less than 0.3 µM, 0.1 to 1 µM and 1 to 3 µM, respectively.
For `O=C1CCC(n2c(=O)[nH]c3cc(N4CCC(n5ccc([C@@H]6CN(C(=O)[C@@H]7CC[C@@H]8CCCC[C@H](NC(=O)c9cc%10cc(C(F)(F)P(=O)(O)O)ccc%10s9)C(=O)N87)C7(CC7)C6)cc5=O)CC4)ccc32)C(=O)N1` (stereo partly drawn) [Compound 24, ((2-(((3S,6S,10aS)-3-((6R)-6-(1-(1-(1-(2,6-dioxopiperidin-3-yl)-2-oxo-2,3-dihydro-1H-benzo[d]imidazol-5-yl)piperidin-4-yl)-2-oxo-1,2-dihydropyridin-4-yl)-4-azaspiro[2.4]heptane-4-carbonyl)-5-oxodecahydropyrrolo[1,2-a]azocin-6-yl)carbamoyl)benzo[b]thiophen-5-yl)difluoromethyl)phosphonic acid], the figures for the IC50 against STAT6, on STAT3 and at pSTAT6 were 0.3 to 3 µM, 1 to 10 µM and greater than 3 µM, respectively.
Taken in the same sequence, the figures for `O=C1CCC(N2Cc3c(OCCOCCOCCn4ccc([C@@H]5CN(C(=O)[C@@H]6CC[C@@H]7CCCC[C@H](NC(=O)c8cc9cc(C(F)(F)P(=O)(O)O)ccc9s8)C(=O)N76)C6(CC6)C5)cc4=O)cccc3C2=O)C(=O)N1` (stereo partly drawn) [Compound 27, ((2-(((3S,6S,10aS)-3-((6R)-6-(1-(2-(2-(2-((2-(2,6-dioxopiperidin-3-yl)-1-oxoisoindolin-4-yl)oxy)ethoxy)ethoxy)ethyl)-2-oxo-1,2-dihydropyridin-4-yl)-4-azaspiro[2.4]heptane-4-carbonyl)-5-oxodecahydropyrrolo[1,2-a]azocin-6-yl)carbamoyl)benzo[b]thiophen-5-yl)difluoromethyl)phosphonic acid] were 0.3 to 3 µM, 1 to 10 µM and greater than 3 µM.

The values above are taken from patent US20260306642A1, “STAT DEGRADERS AND USES THEREOF” (Recludix Pharma, Inc., priority 2023, published 2026).
